PMC9798004 (Frontiers in Psychiatry, 2022)
Entries after “also recorded” stand apart in the source; their conditions may differ.

How the values were obtained:
Type in all cases: cell-based
HRH1 = HRH1 (Homo sapiens, UniProt P35367)
GIPR = target: T1, GIPR (Homo sapiens, UniProt P48546); assay: PathHunter β-arrestin assay; conditions: antagonist mode, up to 30 μM
T1 construct: purchased Eurofins DiscoverX (PathHunter gpcrMAX)

MC3R = MC3R (Homo sapiens, UniProt P41968); assay: PathHunter β-arrestin assay; conditions: antagonist mode vs EC80 of control agonist, 10-point curve
Sequence of MC3R (P41968 whole entry): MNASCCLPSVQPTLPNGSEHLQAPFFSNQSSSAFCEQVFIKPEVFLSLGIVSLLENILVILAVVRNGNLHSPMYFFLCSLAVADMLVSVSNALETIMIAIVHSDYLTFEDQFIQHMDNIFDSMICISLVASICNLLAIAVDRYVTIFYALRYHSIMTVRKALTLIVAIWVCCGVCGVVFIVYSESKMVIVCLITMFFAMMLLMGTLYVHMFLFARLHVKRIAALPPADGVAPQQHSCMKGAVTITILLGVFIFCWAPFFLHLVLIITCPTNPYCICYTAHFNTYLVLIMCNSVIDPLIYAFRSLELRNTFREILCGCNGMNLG

MCHR1 = MCHR1 (Homo sapiens, UniProt Q99705); assay: PathHunter β-arrestin assay; conditions: antagonist mode, up to 30 μM
Sequence of MCHR1 (Q99705 whole entry): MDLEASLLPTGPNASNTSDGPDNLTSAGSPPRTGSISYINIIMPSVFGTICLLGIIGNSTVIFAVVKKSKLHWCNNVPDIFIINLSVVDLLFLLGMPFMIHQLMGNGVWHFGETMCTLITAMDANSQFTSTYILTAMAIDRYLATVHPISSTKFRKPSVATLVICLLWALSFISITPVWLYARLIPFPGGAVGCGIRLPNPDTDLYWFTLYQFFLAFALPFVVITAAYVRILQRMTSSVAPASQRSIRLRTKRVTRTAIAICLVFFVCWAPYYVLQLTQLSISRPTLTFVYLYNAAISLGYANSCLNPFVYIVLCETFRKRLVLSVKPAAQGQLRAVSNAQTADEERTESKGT

CCR9 = target: T2, CCR9 (Homo sapiens, UniProt P51686); assay: PathHunter β-arrestin assay; conditions: antagonist mode, up to 30 μM
T2 construct: purchased Eurofins DiscoverX (PathHunter gpcrMAX)
T2 sequence (P51686 1-369): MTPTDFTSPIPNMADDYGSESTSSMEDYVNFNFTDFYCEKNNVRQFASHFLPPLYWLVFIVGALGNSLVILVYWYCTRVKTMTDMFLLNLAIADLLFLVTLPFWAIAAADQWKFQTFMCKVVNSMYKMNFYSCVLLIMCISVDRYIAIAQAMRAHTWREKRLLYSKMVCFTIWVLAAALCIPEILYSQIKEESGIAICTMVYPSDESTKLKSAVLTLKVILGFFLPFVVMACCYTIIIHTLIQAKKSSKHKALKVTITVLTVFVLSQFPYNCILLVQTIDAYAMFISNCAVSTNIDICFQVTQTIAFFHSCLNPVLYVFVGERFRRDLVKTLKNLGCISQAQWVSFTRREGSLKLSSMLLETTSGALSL

CCR8 = CCR8 (Homo sapiens, UniProt P51685); assay: PathHunter β-arrestin assay; conditions: antagonist mode vs EC80 of control agonist, 10-point curve
Sequence of CCR8 (P51685 whole entry): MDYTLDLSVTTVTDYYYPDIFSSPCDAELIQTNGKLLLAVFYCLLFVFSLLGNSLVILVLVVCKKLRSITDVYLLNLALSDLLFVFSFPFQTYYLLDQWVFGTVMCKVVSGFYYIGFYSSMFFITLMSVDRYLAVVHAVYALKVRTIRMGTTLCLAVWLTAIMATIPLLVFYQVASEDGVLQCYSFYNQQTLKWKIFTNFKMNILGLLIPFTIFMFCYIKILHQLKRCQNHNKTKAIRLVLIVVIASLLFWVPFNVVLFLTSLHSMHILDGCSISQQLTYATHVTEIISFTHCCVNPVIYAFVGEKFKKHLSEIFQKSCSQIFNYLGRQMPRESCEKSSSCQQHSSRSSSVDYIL

HCRTR1 = target: T3, HCRTR1 (Homo sapiens, UniProt O43613); assay: PathHunter β-arrestin assay
T3 sequence (O43613 1-425): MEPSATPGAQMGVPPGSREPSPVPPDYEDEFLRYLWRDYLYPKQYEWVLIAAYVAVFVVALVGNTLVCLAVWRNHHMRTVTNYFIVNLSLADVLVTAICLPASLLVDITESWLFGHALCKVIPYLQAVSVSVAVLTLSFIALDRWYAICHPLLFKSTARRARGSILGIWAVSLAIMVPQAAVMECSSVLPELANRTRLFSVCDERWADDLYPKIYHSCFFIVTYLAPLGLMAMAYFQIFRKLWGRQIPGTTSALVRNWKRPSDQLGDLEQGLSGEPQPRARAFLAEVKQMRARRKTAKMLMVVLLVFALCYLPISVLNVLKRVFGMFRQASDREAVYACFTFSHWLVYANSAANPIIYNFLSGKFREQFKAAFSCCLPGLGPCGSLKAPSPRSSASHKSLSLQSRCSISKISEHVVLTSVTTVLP

CCR6 = target: T4, CCR6 (Homo sapiens, UniProt P51684); assay: PathHunter β-arrestin assay; conditions: antagonist mode, up to 30 μM
T4 construct: purchased Eurofins DiscoverX (PathHunter gpcrMAX)
T4 sequence (P51684 1-374): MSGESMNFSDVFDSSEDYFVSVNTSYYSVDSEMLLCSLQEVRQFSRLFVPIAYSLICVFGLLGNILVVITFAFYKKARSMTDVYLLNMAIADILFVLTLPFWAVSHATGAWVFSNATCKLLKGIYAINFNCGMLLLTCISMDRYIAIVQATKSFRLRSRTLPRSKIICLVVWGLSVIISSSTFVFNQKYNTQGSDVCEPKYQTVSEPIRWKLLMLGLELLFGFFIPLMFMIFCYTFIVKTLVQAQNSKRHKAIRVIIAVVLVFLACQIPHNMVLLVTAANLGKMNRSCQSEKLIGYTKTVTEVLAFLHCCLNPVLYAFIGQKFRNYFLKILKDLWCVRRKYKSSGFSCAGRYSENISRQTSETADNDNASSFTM

GLP2R = target: T5, GLP2R (Homo sapiens, UniProt O95838); assay: PathHunter β-arrestin assay; conditions: antagonist mode vs EC80 of control agonist, 10-point curve
T5 sequence (O95838 1-553): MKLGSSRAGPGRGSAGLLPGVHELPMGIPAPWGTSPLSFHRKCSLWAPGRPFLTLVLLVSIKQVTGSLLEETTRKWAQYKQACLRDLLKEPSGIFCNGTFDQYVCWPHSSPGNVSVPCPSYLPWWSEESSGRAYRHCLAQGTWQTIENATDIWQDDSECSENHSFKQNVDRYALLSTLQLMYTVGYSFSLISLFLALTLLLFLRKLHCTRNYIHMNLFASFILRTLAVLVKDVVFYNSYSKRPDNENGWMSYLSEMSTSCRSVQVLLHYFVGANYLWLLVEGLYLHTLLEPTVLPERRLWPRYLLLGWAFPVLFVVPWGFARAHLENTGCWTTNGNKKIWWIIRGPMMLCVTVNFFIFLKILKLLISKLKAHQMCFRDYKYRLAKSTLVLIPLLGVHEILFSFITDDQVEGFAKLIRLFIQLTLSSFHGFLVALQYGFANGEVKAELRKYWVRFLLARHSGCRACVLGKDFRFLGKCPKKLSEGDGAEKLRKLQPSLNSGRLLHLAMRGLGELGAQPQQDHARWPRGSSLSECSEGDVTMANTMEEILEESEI
Summary of the method: (§1)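 Hits with >5-fold difference between S/N and CoV were followed up with 10-point concentration-response curves (1.5–30 μM) in technical replicate. Antagonist mode used the EC80 of the relevant agonist. RC50 came from a four-parameter fit on normalized data.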

P2RY6 = P2RY6 (Homo sapiens, UniProt Q15077); assay: PathHunter β-arrestin assay; conditions: antagonist mode, up to 30 μM
Sequence of P2RY6 (Q15077 whole entry): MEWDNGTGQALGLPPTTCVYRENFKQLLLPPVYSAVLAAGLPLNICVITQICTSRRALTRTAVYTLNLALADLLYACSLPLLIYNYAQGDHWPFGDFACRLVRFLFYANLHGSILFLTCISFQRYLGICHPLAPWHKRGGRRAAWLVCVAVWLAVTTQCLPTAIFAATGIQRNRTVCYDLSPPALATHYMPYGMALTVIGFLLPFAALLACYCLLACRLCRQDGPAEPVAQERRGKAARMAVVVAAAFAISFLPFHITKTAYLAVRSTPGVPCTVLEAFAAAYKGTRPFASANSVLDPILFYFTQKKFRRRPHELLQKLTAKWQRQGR

CCR10 = target: T6, CCR10 (Homo sapiens, UniProt P46092); assay: PathHunter β-arrestin assay; conditions: antagonist mode vs EC80 of control agonist, 10-point curve
T6 sequence (P46092 1-362): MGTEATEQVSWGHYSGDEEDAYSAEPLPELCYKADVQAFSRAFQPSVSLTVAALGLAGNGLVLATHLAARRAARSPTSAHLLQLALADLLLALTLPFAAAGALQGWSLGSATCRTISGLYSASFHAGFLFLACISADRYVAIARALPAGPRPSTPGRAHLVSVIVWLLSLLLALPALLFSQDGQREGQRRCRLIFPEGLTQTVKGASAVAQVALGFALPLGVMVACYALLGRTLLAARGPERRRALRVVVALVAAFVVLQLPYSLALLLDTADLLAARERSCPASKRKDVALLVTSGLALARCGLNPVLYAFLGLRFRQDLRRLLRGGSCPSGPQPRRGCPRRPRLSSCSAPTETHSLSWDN
Summary of the method: as §1

UTR2 = UTR2 (Homo sapiens, UniProt Q9UKP6); assay: PathHunter β-arrestin assay; conditions: antagonist mode, up to 30 μM
Sequence of UTR2 (Q9UKP6 whole entry): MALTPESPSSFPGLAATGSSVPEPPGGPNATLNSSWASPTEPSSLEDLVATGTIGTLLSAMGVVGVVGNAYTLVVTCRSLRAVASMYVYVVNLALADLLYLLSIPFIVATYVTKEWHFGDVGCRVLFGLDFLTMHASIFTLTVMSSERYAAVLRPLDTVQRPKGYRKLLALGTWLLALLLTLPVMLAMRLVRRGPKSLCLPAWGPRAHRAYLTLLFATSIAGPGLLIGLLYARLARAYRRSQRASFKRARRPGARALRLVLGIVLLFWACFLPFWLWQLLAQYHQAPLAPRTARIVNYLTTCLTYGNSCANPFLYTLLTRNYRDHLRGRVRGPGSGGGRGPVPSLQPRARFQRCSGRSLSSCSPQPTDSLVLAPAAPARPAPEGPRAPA

Sequence of HRH1 (P35367 whole entry): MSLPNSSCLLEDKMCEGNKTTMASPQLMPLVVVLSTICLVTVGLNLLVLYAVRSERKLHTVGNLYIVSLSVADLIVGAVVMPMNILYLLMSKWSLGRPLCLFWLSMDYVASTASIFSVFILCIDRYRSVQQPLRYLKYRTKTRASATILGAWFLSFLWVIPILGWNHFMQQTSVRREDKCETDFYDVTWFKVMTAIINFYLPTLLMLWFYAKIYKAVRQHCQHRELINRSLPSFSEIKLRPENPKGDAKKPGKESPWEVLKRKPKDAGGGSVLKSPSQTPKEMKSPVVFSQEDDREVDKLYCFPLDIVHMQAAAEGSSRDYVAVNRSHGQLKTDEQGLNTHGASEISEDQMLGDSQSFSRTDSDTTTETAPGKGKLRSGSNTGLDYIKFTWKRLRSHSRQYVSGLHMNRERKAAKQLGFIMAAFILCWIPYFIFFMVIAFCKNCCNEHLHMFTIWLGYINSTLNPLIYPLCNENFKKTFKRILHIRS
T1 sequence (P48546 22-466): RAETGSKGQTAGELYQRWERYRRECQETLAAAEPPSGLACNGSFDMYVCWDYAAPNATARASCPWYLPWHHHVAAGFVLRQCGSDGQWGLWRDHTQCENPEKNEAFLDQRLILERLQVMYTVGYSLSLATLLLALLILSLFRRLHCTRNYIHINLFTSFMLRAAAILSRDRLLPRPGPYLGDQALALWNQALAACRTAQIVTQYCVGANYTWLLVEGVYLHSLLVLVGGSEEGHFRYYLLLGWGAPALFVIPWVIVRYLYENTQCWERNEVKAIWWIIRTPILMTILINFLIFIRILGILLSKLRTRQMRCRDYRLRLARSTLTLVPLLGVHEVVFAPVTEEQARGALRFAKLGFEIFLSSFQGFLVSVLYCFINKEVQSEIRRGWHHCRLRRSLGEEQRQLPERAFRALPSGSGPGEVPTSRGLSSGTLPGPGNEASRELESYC

COC(=O)[C@@H](NC(=O)c1nn(Cc2ccc(F)cc2)c2ccccc12)C(C)C [AMB-FUBINACA]
IC50 (HRH1): 1.42 µM | inhibitory activity at lower concentrations (HRH1; antagonist mode, 1 μM): appreciable inhibitory activity | inhibitory activity in concentration-response (GIPR): Activity was only observed at the highest concentration (30 μM) | IC50 (MC3R): 6.68 µM | inhibitory activity in concentration-response (MCHR1): Activity was only observed at the highest concentration (30 μM); also recorded: only inhibited at the highest 30 μM concentration | inhibitory activity in concentration-response (CCR9): Activity was only observed at the highest concentration (30 μM); also recorded: only inhibited at the highest 30 μM concentration | IC50 (CCR8): 7.99 µM | IC50 (HCRTR1; antagonist mode vs EC80 of control agonist, 10-point curve): 8.59 µM | maximum inhibition (HCRTR1; antagonist mode, concentration-response up to 30 μM): 73.00% | inhibitory activity in concentration-response (CCR6): Activity was only observed at the highest concentration (30 μM) | IC50 (GLP2R): 13.1 µM | inhibitory activity in concentration-response (P2RY6): Activity was only observed at the highest concentration (30 μM) | IC50 (CCR10): 12.3 µM | inhibitory activity in concentration-response (UTR2): did not produce any clear activity
